Test results reported in PMC11472313, “Development of Fragment-Based Inhibitors of the Bacterial Deacetylase LpxC with Low Nanomolar Activity” (Journal of Medicinal Chemistry, 2024).

Assays:
[1] = metabolic stability in mouse liver S9 fractions; type: in vitro ADME; conditions: pooled liver S9 fraction, 1 μM compound, 1 mg/mL S9, phase I and II cofactors; for half-life at 1 μM: read-out: metabolic stability in mouse liver S9 fractions t1/2
Protocol: For the evaluation of combined phase I and phase II metabolic stability, the compound (1 μM) was incubated with 1 mg/mL pooled mouse liver S9 fraction (Xenotech, Kansas City, USA), 2 mM nicotinamide adenine dinucleotide phosphate hydrogen (NADPH), 1 mM UDPGA, 10 mM MgCl2, 5 mM glutathione (GSH), and 0.1 mM 3′-phosphoadenosine 5′-phosphosulfate (PAPS) at 37 °C for 120 min. The metabolic stability of testosterone, verapamil, and ketoconazole were determined in parallel to confirm the enzymatic activity of mouse S9 fractions. The incubation was stopped after defined time points by precipitation of aliquots of S9 enzymes with 2 volumes of cold acetonitrile containing internal standard (150 nM diphenhydramine). Samples were stored on ice until the end of the incubation and the precipitated protein was removed by centrifugation (15 min, 4 °C, 4000g). Concentration of the remaining test compound at the different time points was analyzed by HPLC–MS/MS (TSQ Quantum Access Max, Thermo Fisher, Dreieich, Germany) and used to determine half-life (t1/2).

[2] = log D7.4, HPLC-based method; type: physicochemical; conditions: pH 7.4, HPLC-based; read-out: logD7.4
Protocol: Log D7.4 was analyzed using an HPLC-based method. The UV retention time of reference compounds with known log D7.4 was determined and plotted toward their log D7.4. Linear regression was used to determine the log D7.4 of unknown compounds. Analysis was performed using a Vanquish Flex HPLC system with a variable wavelength detector (Thermo Fisher, Dreieich, Germany) with the following conditions: EC150/2 NUCLEODUR C18 Pyramid column, […] (Macherey Nagel, Düren, Germany); eluent A: 50 mM NH4OAc pH 7.4, eluent B: acetonitrile, and flow: 0.6 mL/min; gradient elution: (B %): 0–2.5 min: gradient from 0 to 100%, 2.5–3.0 min: 100%, 3.0–3.2 min: gradient from 100 to 0%, 3.2–5.0 min: 0%.

[3] = microsomal metabolic stability, human; type: in vitro ADME; conditions: human liver microsomes; for half-life: read-out: microsomal metabolic stability t1/2
Protocol: Also, the plasma stability of the compounds in mouse plasma was generally low with half-lives between 22.9 min [(S)-13h] and 43.1 min [(S)-13j].
The microsomal metabolic stability assay as well as the plasma protein binding assay were conducted as described previously.[78]
Samples were analyzed using an Agilent 1290 Infinity II HPLC system coupled to an AB Sciex QTrap 6500plus mass spectrometer. LC conditions were as follows: column: Agilent Zorbax Eclipse Plus C18, 50 × 2.1 mm, 1.8 μm; temperature: 30 °C; injection volume: 5 μL per sample; flow rate: 700 μL min^–1. Samples were run under acidic conditions. Solvents: (A) water + 0.1% formic acid; (B) 95% acetonitrile/5% H2O + 0.1% formic acid. Gradient elution: (A %): 0–0.1 min: 99%, 0.1–3.5 min: gradient from 99 to 50%, 3.5–3.8 min: gradient from 50 to 0%, 3.8–4.7 min: gradient from 0 to 99%. Mass transitions for controls and compounds are depicted in Table S3.

[4] = MTT-based cytotoxicity assay; type: cell-based; conditions: human, HepG2 cells
From the text: An MTT-based assay was employed to evaluate the viability of HepG2 cells after challenge with selected inhibitors and performed as described previously.[77]

With `O=C(NC[C@H](OCc1ccc(C#Cc2ccc(CN3CCOCC3)cc2)cc1)C(=O)NO)c1c[nH]c2ccccc12` [(S)-13h] as the molecule, how does the microsomal CLint at 1 μM [1] read?
The microsomal CLint at 1 μM was about 45 µL/min/mg.

What about the half-life at 1 μM [1] of the same molecule?
The half-life at 1 μM was 15.5 ± 1 min.

What about the chromatographic logD [2] of the same molecule?
Its chromatographic logD is 3.63.

What about the microsomal CLint [3] of the same molecule?
Its microsomal CLint is under 23 µL/min/mg.

And the half-life [3]?
Its half-life is over 60 min.

What about the IC50 [4] of the same molecule?
Its IC50 is 15.1 ± 1.7 µM.

Which results are given for `O=C(NC[C@H](OCc1ccc(C#Cc2ccc(CN3CCOCC3)cc2)cc1)C(=O)NO)c1ccc2[nH]ccc2c1` [(S)-13j]?
microsomal CLint at 1 μM [1]: 27.6 ± 2.7 µL/min/mg; half-life at 1 μM [1]: 25.5 ± 2.7 min; chromatographic logD [2]: 3.33; microsomal CLint [3]: < 23 µL/min/mg; half-life [3]: > 60 min; IC50 [4]: 8.1 ± 1.4 µM

For `O=C(NC[C@H](OCc1ccc(C#Cc2ccc(CN3CCOCC3)cc2)cc1)C(=O)NO)c1cc[nH]n1` [(S)-13l], which microsomal CLint at 1 μM [1] is on record?
Its microsomal CLint at 1 μM is 10.9 ± 0.9 µL/min/mg.

What about the half-life at 1 μM [1] of the same molecule?
The half-life at 1 μM was over 60 min.

What about the chromatographic logD [2] of the same molecule?
Its chromatographic logD is 2.43.

And the microsomal CLint [3]?
Its microsomal CLint is under 23 µL/min/mg.

And the half-life [3]?
Its half-life is over 60 min.

What about the IC50 [4] of the same molecule?
The IC50 was 30.2 ± 1.9 µM.
